Laboratory results reported in PubChem BioAssay AID330 (DTP/NCI, 2004).
Inconclusive results and toxic doses are left out.

Tested on: P388 leukemia ip, CD2F1 mice, survival T/C
Assay: NCI In Vivo Anticancer Drug Screen. Data for tumor model P388 Leukemia (intraperitoneal) in CD2F1 (CDF1) mice
Conditions: endpoint: median survival time, higher = longer survival
In short: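 Mice carrying the transplanted tumor received test compound or vehicle. Survival was recorded in each group, and the value is the treated-group measurement divided by that of the vehicle-treated control group.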

[1] = dose: 60.0 mg/kg/injection, schedule: Q01DX005 (ip), vehicle: saline with Tween-80
[2] = dose: 120.0 mg/kg/injection, schedule: Q01DX005 (ip), vehicle: saline with Tween-80
[3] = dose: 240.0 mg/kg/injection, schedule: Q01DX005 (ip), vehicle: saline with Tween-80
[4] = dose: 50.0 mg/kg/injection, schedule: Q01DX009 (ip), vehicle: saline with Tween-80
[5] = dose: 100.0 mg/kg/injection, schedule: Q01DX009 (ip), vehicle: saline with Tween-80
[6] = dose: 200.0 mg/kg/injection, schedule: Q01DX009 (ip), vehicle: saline with Tween-80

Cc1cn2c(n1)Nc1sc3c(c1C2)CCCC3
T/C [1]: 101 % of control | T/C [2]: 103 % of control | T/C [3]: 100 % of control

COc1cc(C(c2cc3c(cc2OC(C)=O)OCO3)C(C)C(C)=O)cc(OC)c1OC (stereo not given)
T/C [1]: 102 % of control | T/C [2]: 108 % of control | T/C [3]: 111 % of control

CC(=O)C(CO)C(=O)Nc1ccccc1 (stereo not given)
T/C [4]: 100 % of control | T/C [5]: 95 % of control | T/C [6]: 95 % of control

C=CCNC(=S)Nc1sc(C)c(C)c1C(=O)OCC
T/C [4]: 100 % of control | T/C [5]: 100 % of control | T/C [6]: 97 % of control

CCOC(=O)c1c(C)c2c(n1C)CCc1c-2nc(N)[nH]c1=O
T/C (dose: 50.0 mg/kg/injection, schedule: Q01DX009 (ip), vehicle: Klucel (hydroxypropylcellulose) (HPC)): 97 % of control | T/C (dose: 100.0 mg/kg/injection, schedule: Q01DX009 (ip), vehicle: Klucel (hydroxypropylcellulose) (HPC)): 97 % of control | T/C (dose: 200.0 mg/kg/injection, schedule: Q01DX009 (ip), vehicle: Klucel (hydroxypropylcellulose) (HPC)): 88 % of control

C=CC1CN2CCC1CC2C(O)c1ccnc2ccc(OC)cc12 (stereo not given)
T/C (dose: 50.0 mg/kg/injection, schedule: Q01DX005 (ip), vehicle: saline with Tween-80): 97 % of control | T/C (dose: 50.0 mg/kg/injection, schedule: Q04DX003 (ip), vehicle: alcohol): 115 % of control | T/C (dose: 100.0 mg/kg/injection, schedule: Q01DX005 (ip), vehicle: saline with Tween-80): 104 % of control | T/C (dose: 100.0 mg/kg/injection, schedule: Q04DX003 (ip), vehicle: alcohol): 105 % of control | T/C (dose: 200.0 mg/kg/injection, schedule: Q04DX003 (ip), vehicle: alcohol): 115 % of control

C1=C(C2=C[P+](c3ccccc3)(c3ccccc3)C=C(c3ccccc3)O2)OC(c2ccccc2)=C[P+]1(c1ccccc1)c1ccccc1
T/C (dose: 12.5 mg/kg/injection, schedule: Q01DX005 (ip), vehicle: saline with Tween-80): 103 % of control | T/C (dose: 25.0 mg/kg/injection, schedule: Q01DX005 (ip), vehicle: saline with Tween-80): 100 % of control

Cc1cc(NC(=S)SCc2ccc(Cl)cc2)c([N+](=O)[O-])cc1C
T/C (dose: 50.0 mg/kg/injection, schedule: Q01DX009 (ip), vehicle: saline): 92 % of control | T/C (dose: 50.0 mg/kg/injection, schedule: Q01DX009 (ip), vehicle: suspension in saline): 108 % of control | T/C (dose: 100.0 mg/kg/injection, schedule: Q01DX009 (ip), vehicle: saline): 97 % of control | T/C (dose: 200.0 mg/kg/injection, schedule: Q01DX009 (ip), vehicle: saline): 92 % of control | T/C (dose: 200.0 mg/kg/injection, schedule: Q01DX009 (ip), vehicle: suspension in saline): 98 % of control

CC(C)=CCc1c(O)ccc(C(=O)[C@H]2C(c3ccc(O)cc3O)CC(C)=C[C@@H]2c2c(O)cc(O)c3c(=O)c(CC=C(C)C)c(-c4ccc(O)cc4O)oc23)c1O (stereo not given in full)
T/C (dose: 7.5 mg/kg/injection, schedule: Q01DX005 (ip), vehicle: Klucel (hydroxypropylcellulose) (HPC)): 92 % of control | T/C (dose: 15.0 mg/kg/injection, schedule: Q01DX005 (ip), vehicle: Klucel (hydroxypropylcellulose) (HPC)): 97 % of control | T/C (dose: 30.0 mg/kg/injection, schedule: Q01DX005 (ip), vehicle: Klucel (hydroxypropylcellulose) (HPC)): 93 % of control | T/C (dose: 60.0 mg/kg/injection, schedule: Q01DX005 (ip), vehicle: Klucel (hydroxypropylcellulose) (HPC)): 108 % of control | T/C (dose: 120.0 mg/kg/injection, schedule: Q01DX005 (ip), vehicle: Klucel (hydroxypropylcellulose) (HPC)): 92 % of control

C=CC(COC(=O)C(Cl)(Cl)Cl)NC(=O)C(Cl)(Cl)Cl (stereo not given)
T/C (dose: 6.25 mg/kg/injection, schedule: Q01DX005 (ip), vehicle: distilled water + Tween-80): 100 % of control | T/C (dose: 12.5 mg/kg/injection, schedule: Q01DX005 (ip), vehicle: distilled water + Tween-80): 90 % of control | T/C (dose: 25.0 mg/kg/injection, schedule: Q01DX005 (ip), vehicle: distilled water + Tween-80): 100 % of control | T/C (dose: 50.0 mg/kg/injection, schedule: Q01DX005 (ip), vehicle: distilled water + Tween-80): 100 % of control | T/C (dose: 100.0 mg/kg/injection, schedule: Q01DX005 (ip), vehicle: distilled water + Tween-80): 95 % of control

CCC1(O)CN2CCc3c([nH]c4ccccc34)C(C(=O)OC)(c3cc4c(cc3OC)N(C)C3C(O)(C(=O)OC)C(OC(C)=O)C5(CC)C=CCN6CCC43C65)CC(C2=O)C1O (stereo not given)
T/C (dose: 25.0 mg/kg/injection, schedule: Q01DX001 (ip), vehicle: distilled water + Tween-80): 107 % of control | T/C (dose: 25.0 mg/kg/injection, schedule: Q01DX001 (ip), vehicle: suspension in saline): 104 % of control | T/C (dose: 50.0 mg/kg/injection, schedule: Q01DX001 (ip), vehicle: suspension in saline): 110 % of control | T/C (dose: 100.0 mg/kg/injection, schedule: Q01DX001 (ip), vehicle: suspension in saline): 120 % of control | T/C (dose: 200.0 mg/kg/injection, schedule: Q01DX001 (ip), vehicle: distilled water + Tween-80): 154 % of control

CN(C)C12CCC(c3ccccc31)c1ccccc12
T/C [1]: 105 % of control | T/C [2]: 97 % of control | T/C [3]: 104 % of control
